Data from US7118895B2, “Process for producing aglycon by using diglycosidase and flavor-improved food containing the aglycon and converting agent to be used in the process” (Amano Enzyme Inc., priority 2000, dated 2006).

System: Crude diglycosidase
Test: Examination of temperature in the conversion into isoflavone aglycons by diglycosidase using soybean materials
Format: biochemical, Penicillium multicolor IAM7153
Parameters: Decomposition efficiency of glycitin family in roasted soy flour / Decomposition efficiency of daidzin family in roasted soy flour / Decomposition efficiency of genistin family in soymilk / Decomposition efficiency of daidzin family in soymilk / Decomposition efficiency of glycitin family in defatted soybean / Decomposition efficiency of daidzin family in defatted soybean: concentration or dose not given beside the values
Protocol: Into 400 μL of 20 mM acetate buffer of pH 4.0 was suspended 50 mg of each of various soybean materials (roasted soy flour (manufactured by Fuji Shokuryo K.K.), soymilk (manufactured by Gitoh Shokuhin K.K.), defatted soybean (manufactured by Fuji Seiyu K.K.), concentrated soybean protein (manufactured by Fuji Seiyu K.K.)), whereby a substrate solution was prepared. Crude diglycosidase was diluted with 20 mM acetate buffer of pH 4.0 to be the glycosidase activity of 1.88 AU/mL. Fifty μL of the enzyme solution was mixed with the substrate solution and the whole was reacted at 80, 65, 55, 45, 37, or 30° C. at the total volume of 500 μL. To the reaction mixture was added 700 μL of ethanol after 0, 1, 3, and 6 hours of the reaction. After stirring and ultrasonication, the mixture was subjected to centrifugal separation at 15,000 rpm and 4° C. for 10 minutes. The supernatant was filtered through a filter and the existence of isoflavone glycosides and aglycon isoflavones contained in the reaction mixture was detected by HLPC.

[1] = 30° C., heat treatment of enzyme no, reaction time 0 h
[2] = 30° C., heat treatment of enzyme no, reaction time 1 h
[3] = 30° C., heat treatment of enzyme no, reaction time 3 h
[4] = 30° C., heat treatment of enzyme no, reaction time 6 h
[5] = 30° C., heat treatment of enzyme yes, reaction time 6 h
[6] = 45° C., heat treatment of enzyme no, reaction time 0 h
[7] = 45° C., heat treatment of enzyme no, reaction time 1 h
[8] = 45° C., heat treatment of enzyme no, reaction time 3 h
[9] = 45° C., heat treatment of enzyme no, reaction time 6 h
[10] = 45° C., heat treatment of enzyme yes, reaction time 6 h
[11] = 45 °C, heat treatment of enzyme: no, 0 h
[12] = 45 °C, heat treatment of enzyme: no, 1 h
[13] = 45 °C, heat treatment of enzyme: no, 3 h
[14] = 45 °C, heat treatment of enzyme: no, 6 h
[15] = 45 °C, heat treatment of enzyme: yes, 6 h
[16] = 55° C., heat treatment of enzyme no, reaction time 0 h
[17] = 55° C., heat treatment of enzyme no, reaction time 1 h
[18] = 55° C., heat treatment of enzyme no, reaction time 3 h
[19] = 55° C., heat treatment of enzyme no, reaction time 6 h
[20] = 55° C., heat treatment of enzyme yes, reaction time 6 h
[21] = 55 °C, heat treatment of enzyme: no, 0 h
[22] = 55 °C, heat treatment of enzyme: no, 1 h
[23] = 55 °C, heat treatment of enzyme: no, 3 h
[24] = 55 °C, heat treatment of enzyme: no, 6 h
[25] = 55 °C, heat treatment of enzyme: yes, 6 h
[26] = 65° C., heat treatment of enzyme no, reaction time 0 h
[27] = 65° C., heat treatment of enzyme no, reaction time 1 h
[28] = 65° C., heat treatment of enzyme no, reaction time 3 h
[29] = 65° C., heat treatment of enzyme no, reaction time 6 h
[30] = 65° C., heat treatment of enzyme yes, reaction time 6 h
[31] = 65 °C, heat treatment of enzyme: no, 0 h
[32] = 65 °C, heat treatment of enzyme: no, 1 h
[33] = 65 °C, heat treatment of enzyme: no, 3 h
[34] = 65 °C, heat treatment of enzyme: no, 6 h
[35] = 65 °C, heat treatment of enzyme: yes, 6 h
[36] = 80° C., heat treatment of enzyme no, reaction time 0 h
[37] = 80° C., heat treatment of enzyme no, reaction time 1 h
[38] = 80° C., heat treatment of enzyme no, reaction time 3 h
[39] = 80° C., heat treatment of enzyme no, reaction time 6 h
[40] = 80° C., heat treatment of enzyme yes, reaction time 6 h
[41] = 80 °C, heat treatment of enzyme: no, 0 h
[42] = 80 °C, heat treatment of enzyme: no, 1 h
[43] = 80 °C, heat treatment of enzyme: no, 3 h
[44] = 80 °C, heat treatment of enzyme: no, 6 h
[45] = 80 °C, heat treatment of enzyme: yes, 6 h

CC(=O)OC[C@H]1O[C@@H](Oc2ccc3c(=O)c(-c4ccc(O)cc4)coc3c2)[C@H](O)[C@@H](O)[C@@H]1O [acetyldaidzin, 6″-O-acetyldaidzin]
Decomposition efficiency of daidzin family in concentrated soybean protein [1]: 44.6%
Decomposition efficiency of daidzin family in defatted soybean [1]: not detected
Decomposition efficiency of daidzin family in concentrated soybean protein [2]: 44.4%
Decomposition efficiency of daidzin family in defatted soybean [2]: not detected
Decomposition efficiency of daidzin family in concentrated soybean protein [3]: 43.9%
Decomposition efficiency of daidzin family in defatted soybean [3]: not detected
Decomposition efficiency of daidzin family in concentrated soybean protein [4]: 43.5%
Decomposition efficiency of daidzin family in defatted soybean [4]: not detected
Decomposition efficiency of daidzin family in concentrated soybean protein [5]: 42.3%
Decomposition efficiency of daidzin family in defatted soybean [5]: not detected
Decomposition efficiency of daidzin family in soymilk (30 °C, heat treatment of enzyme: no, 0 h): not detected
Decomposition efficiency of daidzin family in soymilk (30 °C, heat treatment of enzyme: no, 1 h): not detected
Decomposition efficiency of daidzin family in soymilk (30 °C, heat treatment of enzyme: no, 3 h): not detected
Decomposition efficiency of daidzin family in soymilk (30 °C, heat treatment of enzyme: no, 6 h): not detected
Decomposition efficiency of daidzin family in soymilk (30 °C, heat treatment of enzyme: yes, 6 h): not detected
Decomposition efficiency of daidzin family in roasted soy flour (35 °C, heat treatment of enzyme: no, 0 h): 47.8%
Decomposition efficiency of daidzin family in roasted soy flour (35 °C, heat treatment of enzyme: no, 1 h): 46.9%
Decomposition efficiency of daidzin family in roasted soy flour (35 °C, heat treatment of enzyme: no, 3 h): 45.3%
Decomposition efficiency of daidzin family in roasted soy flour (35 °C, heat treatment of enzyme: no, 6 h): 39.6%
Decomposition efficiency of daidzin family in roasted soy flour (35 °C, heat treatment of enzyme: yes, 6 h): 43.8%
Decomposition efficiency of daidzin family in concentrated soybean protein [6]: 44.5%
Decomposition efficiency of daidzin family in defatted soybean [6]: not detected
Decomposition efficiency of daidzin family in concentrated soybean protein [7]: 44.1%
Decomposition efficiency of daidzin family in defatted soybean [7]: not detected
Decomposition efficiency of daidzin family in concentrated soybean protein [8]: 41.5%
Decomposition efficiency of daidzin family in defatted soybean [8]: not detected
Decomposition efficiency of daidzin family in concentrated soybean protein [9]: 42.9%
Decomposition efficiency of daidzin family in defatted soybean [9]: not detected
Decomposition efficiency of daidzin family in concentrated soybean protein [10]: 0.0%
Decomposition efficiency of daidzin family in defatted soybean [10]: not detected
Decomposition efficiency of daidzin family in roasted soy flour [11]: 47.7%
Decomposition efficiency of daidzin family in soymilk [11]: not detected
Decomposition efficiency of daidzin family in roasted soy flour [12]: 42.9%
Decomposition efficiency of daidzin family in soymilk [12]: not detected
Decomposition efficiency of daidzin family in roasted soy flour [13]: 37.9%
Decomposition efficiency of daidzin family in soymilk [13]: not detected
Decomposition efficiency of daidzin family in roasted soy flour [14]: 28.5%
Decomposition efficiency of daidzin family in soymilk [14]: not detected
Decomposition efficiency of daidzin family in roasted soy flour [15]: 42.5%
Decomposition efficiency of daidzin family in soymilk [15]: not detected
Decomposition efficiency of daidzin family in concentrated soybean protein [16]: 44.5%
Decomposition efficiency of daidzin family in defatted soybean [16]: not detected
Decomposition efficiency of daidzin family in concentrated soybean protein [17]: 44.0%
Decomposition efficiency of daidzin family in defatted soybean [17]: not detected
Decomposition efficiency of daidzin family in concentrated soybean protein [18]: 40.6%
Decomposition efficiency of daidzin family in defatted soybean [18]: not detected
Decomposition efficiency of daidzin family in concentrated soybean protein [19]: 37.7%
Decomposition efficiency of daidzin family in defatted soybean [19]: not detected
Decomposition efficiency of daidzin family in concentrated soybean protein [20]: 42.3%
Decomposition efficiency of daidzin family in defatted soybean [20]: not detected
Decomposition efficiency of daidzin family in roasted soy flour [21]: 47.5%
Decomposition efficiency of daidzin family in soymilk [21]: not detected
Decomposition efficiency of daidzin family in roasted soy flour [22]: 42.8%
Decomposition efficiency of daidzin family in soymilk [22]: not detected
Decomposition efficiency of daidzin family in roasted soy flour [23]: 32.5%
Decomposition efficiency of daidzin family in soymilk [23]: not detected
Decomposition efficiency of daidzin family in roasted soy flour [24]: 26.7%
Decomposition efficiency of daidzin family in soymilk [24]: not detected
Decomposition efficiency of daidzin family in roasted soy flour [25]: 43.6%
Decomposition efficiency of daidzin family in soymilk [25]: not detected
Decomposition efficiency of daidzin family in concentrated soybean protein [26]: 44.6%
Decomposition efficiency of daidzin family in defatted soybean [26]: not detected
Decomposition efficiency of daidzin family in concentrated soybean protein [27]: 44.3%
Decomposition efficiency of daidzin family in defatted soybean [27]: not detected
Decomposition efficiency of daidzin family in concentrated soybean protein [28]: 42.9%
Decomposition efficiency of daidzin family in defatted soybean [28]: not detected
Decomposition efficiency of daidzin family in concentrated soybean protein [29]: 41.6%
Decomposition efficiency of daidzin family in defatted soybean [29]: not detected
Decomposition efficiency of daidzin family in concentrated soybean protein [30]: 43.6%
Decomposition efficiency of daidzin family in defatted soybean [30]: not detected
Decomposition efficiency of daidzin family in roasted soy flour [31]: 47.8%
Decomposition efficiency of daidzin family in soymilk [31]: not detected
Decomposition efficiency of daidzin family in roasted soy flour [32]: 43.7%
Decomposition efficiency of daidzin family in soymilk [32]: not detected
Decomposition efficiency of daidzin family in roasted soy flour [33]: 40.2%
Decomposition efficiency of daidzin family in soymilk [33]: not detected
Decomposition efficiency of daidzin family in roasted soy flour [34]: 37.8%
Decomposition efficiency of daidzin family in soymilk [34]: not detected
Decomposition efficiency of daidzin family in roasted soy flour [35]: 46.1%
Decomposition efficiency of daidzin family in soymilk [35]: not detected
Decomposition efficiency of daidzin family in concentrated soybean protein [36]: 44.5%
Decomposition efficiency of daidzin family in defatted soybean [36]: not detected
Decomposition efficiency of daidzin family in concentrated soybean protein [37]: 45.5%
Decomposition efficiency of daidzin family in defatted soybean [37]: not detected
Decomposition efficiency of daidzin family in concentrated soybean protein [38]: 44.7%
Decomposition efficiency of daidzin family in defatted soybean [38]: not detected
Decomposition efficiency of daidzin family in concentrated soybean protein [39]: 43.8%
Decomposition efficiency of daidzin family in defatted soybean [39]: not detected
Decomposition efficiency of daidzin family in concentrated soybean protein [40]: 42.3%
Decomposition efficiency of daidzin family in defatted soybean [40]: not detected
Decomposition efficiency of daidzin family in roasted soy flour [41]: 47.7%
Decomposition efficiency of daidzin family in soymilk [41]: not detected
Decomposition efficiency of daidzin family in roasted soy flour [42]: 49.1%
Decomposition efficiency of daidzin family in soymilk [42]: not detected
Decomposition efficiency of daidzin family in roasted soy flour [43]: 47.9%
Decomposition efficiency of daidzin family in soymilk [43]: not detected
Decomposition efficiency of daidzin family in roasted soy flour [44]: 46.7%
Decomposition efficiency of daidzin family in soymilk [44]: not detected
Decomposition efficiency of daidzin family in roasted soy flour [45]: 45.0%
Decomposition efficiency of daidzin family in soymilk [45]: not detected
